Values of other authors, collected in patent publication US20210378997A1, “INHIBITOR OF RENAL FIBROSIS IN DIABETIC NEPHROPATHY” (KYOTO PREFECTURAL PUBLIC UNIVERSITY CORPORATION, priority 2018, published 2021).

Settings: patients with diabetic nephropathy, 1-year medication

## Cc1ccc(=O)n(-c2ccccc2)c1 [pirfenidone]
  renal function (eGFR): significantly improved
